Marks after values point to notes of the source that are not given here.

For the assay, the system named is CD34^+ cells. The experiment in a line: Cell phenotyping of CD34+ liquid cultures by flow cytometry (CD34, CD33, CD15, CD41). The class given is cell-based, human. As to conditions: day 14; seeded at 50,000 cells/well; ARP 2 nM, cortisol 1.2 μM, ASP 2 nM, SCF 50 ng/ml, AS1 20 pM, PBAN 2 nM. From the text: Cell Source: UCB was collected, following informed consent of the parents and with the approval of the Sourasky Medical Center Ethics Committee, as previously described [Grisaru et al. (1999a) Am. J. Obstet. Gynecol, 180, 1240–1243]. Following 1:1 (v/v) dilution in Iscove's modified Dulbecco medium (IMDM, Beit Haemek, Israel), mononuclear cells were separated using 3% gelatin (Difco, Detroit, Mich.) and Ficoll-Hypaque gradients (<1.077 g/ml; Pharmacia, Uppsala, Sweden) [Pick et al. (1998) Br. J. Haematol. 103, 639–50]. CD34^+ cells were enriched using CD34 immunoglobulin-coated magnetic beads (CD34 progenitor cell selection system, Dynal, Norway).CD34^+ cells analysis was performed by flow cytometry (Becton Dickinson Immunocytochemistry System Inc., San Jose, Calif.), using CD34-PE (Becton Dickinson Immunocytometry System, Inc.) and CD45-FITC (Dako, Glostrup, Denmark) monoclonal antibodies. […] Liquid Cultures: UCB CD34^+ cells were set for liquid cultures at a concentration of 10^5/mL in IMDM, containing 10% autologous plasma, 2 mM L-glutamine (Sigma Chemical Co., St Louis, Mo.), penicillin ([…]), streptomycin ([…]), amphotericin B (2×10^−5 M) (Sigma Chemical Co.), and heparin (20 IU/mL, Gibco, Grand Island, N.Y.), all in a fully humidified atmosphere at 37° C. and 5% CO2. The following elements were added where noted: • 1. […] Endothlial Growth factors: Epidermal growth factor (EGF 10 ng/ml, Sigma Chemical Co.), basic Fibroblast growth factor (bFGF 20 ng/ml, Sigma Chemical Co.) incubated in a serum free medium (SFM) for 48 hr. • 3. Stress mimicking conditions: Hydrocortisone sodium succinate (Abic Ltd., Netanya, Israel) at concentrations equivalent to normal, intermediate and stress serum cortisol levels (0.1, 0.6 and 1.2 μM, respectively (De Vroede et al., Arch. Des. […] Antisense oligonucleotides: 3′-terminal 2′-O-Methylated 15- and 20-mer oligodeoxynucleotides in the antisense (AS) orientation, targeted against the common sequence domain in human AChEmRNA and BuChE mRNA, as control, […], as detailed elsewhere [Grisaru et al. (1999b) Mol. Cell. Biol. 19, 788–95]. • 5. AChE C-terminal peptides: The following C-terminal peptides of the AChE synaptic (ASP, also denoted SEQ ID: No. 2) and readthrough (ARP, also denoted SEQ ID: No. 1) isoforms were synthesized using a 433A peptide synthesizer (PE Applied Biosystems, Inc., Norwalk, Conn.). • ASP: 1-[…]-40, also denoted as SEQ ID: No. 2. • ARP: 1-[…]-26, also denoted as SEQ ID: No. 1.
Culture Analyses: Twenty-four hr liquid cultures served for cytochemical staining, in situ hybridization, and cell proliferation assay by 5-bromo-2′-deoxy-Uridine (BrdU) incorporation [Grisaru et al. (1999b) id ibid.]. Twenty-eight day liquid cultures were sampled every 6–8 days for viable cell counting (using trypan blue dye exclusion), cell phenotyping (CD34^+, CD33^+ and CD41^+ quantification using flow cytometry, with CD34-PE, CD33-FITC (Immunotech/Coulter, Hialeah, Fla.), CD41-FITC (Immunoquality Products, Groningen, Netherlands) and CD45-FITC monoclonal antibodies), and growth of progenitor colony (granulocyte-macrophage and megakaryocytic), using previously described techniques (Pick et al. (1998) id ibid.). […] 11, 1049–57]. Nuclear staining w with 4′,6-diamidino-2- phenylindole [DAPI, see e.g., Peterson et al. (1999) Genetics 152, 427–439].
(A flow cytometer gives signals particle by particle.)

As for “ASP (DTLDEAERQWKAEFHRWSSYMVHWKNQFDHYSKQDRCSDL)”, the “CD33^+ (early myeloids)” value was 10.0 cells per culture × 10^−3; the “CD33^+ and CD15^+ (total myeloids)” value is given as 13.0 cells per culture × 10^−3; the “CD34^+ (early progenitors)” value is given as 7.2 cells per culture × 10^−3; the “CD41^+ (megakaryocytes)” value is recorded as 4.6^b cells per culture × 10^−3.

The record behind these values is patent US7067486B2, “Acetylcholinesterase-derived peptides and uses thereof” (priority 1999, dated 2006).
